Some test systems named below: U251 CNS; UACC-62 melanoma; MALME-3M melanoma; RXF 393 renal; OVCAR-3 ovarian; MDA-N; SNB-75 CNS; CCRF-CEM leukemia; CAKI-1 renal; SW-620 colon; NCI-H226 lung; OVCAR-8 ovarian; 786-0 renal; SK-OV-3 ovarian; UO-31 renal; SF-268 CNS; NCI-H460 lung; SR leukemia.
What all share (test): NCI-60 cell line screen, 48 h

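Each compound was tested at five concentrations against cells in 96-well plates for 48 hours. TGI: concentration producing complete growth inhibition.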 Where a SMILES comes first, the peptide text is derived from it. [ ]: non-standard residue; d: D form. β3hI = CC[CH](C)[CH](N)CC(=O)O

As for `Cc1[nH]c(=O)nc(NCCNCCO)c1C(=O)Nc1c2ccccc2nc2ccccc12`, the TGI in the experiment on U251 CNS, with UACC-62 melanoma, in the experiment with MALME-3M melanoma, in the experiment on RXF 393 renal, with OVCAR-3 ovarian and in the experiment on MDA-N was above 100 µM throughout. In addition, the TGI with SNB-75 CNS, in the experiment on CCRF-CEM leukemia, with CAKI-1 renal, in the experiment on SW-620 colon, in the experiment on NCI-H226 lung and in the experiment with OVCAR-8 ovarian was above 100 µM in each case. In addition, the TGI with 786-0 renal, in the experiment with SK-OV-3 ovarian and with UO-31 renal was above 100 µM in each case.

As for `CCOC(=O)c1[nH]c2ccccc2c1C(=O)C[C@H](NC(=O)C(F)(F)F)C(=O)OC`, the TGI in the experiment with U251 CNS, in the experiment with SF-268 CNS, with MALME-3M melanoma, with OVCAR-3 ovarian, in the experiment with MDA-N and with SNB-75 CNS was above 100 µM in each case. The TGI in the experiment with CCRF-CEM leukemia, with CAKI-1 renal, in the experiment with SW-620 colon, with NCI-H460 lung, in the experiment with NCI-H226 lung and in the experiment with OVCAR-8 ovarian was above 100 µM each time. Further, the TGI with 786-0 renal, in the experiment with SR leukemia and in the experiment on UO-31 renal was above 100 µM throughout.

As for `OCCN(CCO)c1ccc2c(c1)Cc1ccccc1-2`, the TGI is above 100 µM in the experiment with U251 CNS; above 100 µM in the experiment on SF-268 CNS; above 100 µM with UACC-62 melanoma; above 100 µM in the experiment with MALME-3M melanoma; 45.9 µM in the experiment with OVCAR-3 ovarian; above 100 µM in the experiment with MDA-N. In addition, the TGI with CCRF-CEM leukemia was above 100 µM; in the experiment with CAKI-1 renal it was 32 µM; in the experiment with SW-620 colon it was above 100 µM; in the experiment on NCI-H460 lung it was 50 µM; in the experiment on NCI-H226 lung, above 100 µM; with OVCAR-8 ovarian it was above 100 µM. For the same molecule, the TGI in the experiment with 786-0 renal, in the experiment on SR leukemia, with SK-OV-3 ovarian and in the experiment on UO-31 renal was above 100 µM each time.

Consider `CNC(=O)CCCN(C)C(=O)CCCCC(=O)N(C)C`, for which the TGI in the experiment with U251 CNS, with SF-268 CNS, with UACC-62 melanoma, with MALME-3M melanoma, in the experiment on RXF 393 renal and in the experiment on OVCAR-3 ovarian was above 100 µM each time. In addition, the TGI in the experiment with MDA-N, in the experiment on SNB-75 CNS, in the experiment with CCRF-CEM leukemia, with CAKI-1 renal, with SW-620 colon and in the experiment on NCI-H460 lung was above 100 µM in each case. For the same molecule, the TGI in the experiment with NCI-H226 lung, in the experiment on OVCAR-8 ovarian, in the experiment with 786-0 renal, with SK-OV-3 ovarian and with UO-31 renal was above 100 µM in each case.

In the case of `CCCCCCCCCCCCCCCCCCOCC(CO[P+](=O)O)OCCCCCCCCCCCCCCCCCC` (stereo unspecified), the TGI in the experiment on U251 CNS, with SF-268 CNS, in the experiment with RXF 393 renal, in the experiment with OVCAR-3 ovarian, with MDA-N and in the experiment on SNB-75 CNS was above 50 µM each time. Moreover, the TGI in the experiment on CAKI-1 renal, in the experiment with SW-620 colon, in the experiment on NCI-H460 lung, in the experiment on NCI-H226 lung, with OVCAR-8 ovarian and with 786-0 renal was above 50 µM each time. Further, the TGI with SR leukemia and in the experiment on SK-OV-3 ovarian was above 50 µM throughout.

On to `CCC(C)C(CC(=O)N1CCCC1C(=O)NC(C(=O)NC(C(=O)NCC(=O)NC(CC(N)=O)C(=O)NC(C(=O)NC(C(=O)NC(CCCCN)C(N)=O)C(C)CC)C(C)CC)C(C)C)C(C)CC)NC(=O)C(N)C(C)CC` (stereo not drawn) (H-I[β3hI]PIVGNIIK-NH2; configuration not given here), for which the TGI with U251 CNS, in the experiment with SF-268 CNS, in the experiment with UACC-62 melanoma, with MALME-3M melanoma, with OVCAR-3 ovarian and with MDA-N was above 50 µM each time. Also, the TGI in the experiment on CCRF-CEM leukemia, with CAKI-1 renal, with SW-620 colon, with NCI-H226 lung, in the experiment with OVCAR-8 ovarian and in the experiment with 786-0 renal was above 50 µM each time. Moreover, the TGI in the experiment with SR leukemia, with SK-OV-3 ovarian and with UO-31 renal was above 50 µM each time.

With `O=C(OCC1OC(c2nn[nH]n2)C(OC(=O)c2ccccc2)C1OC(=O)c1ccccc1)c1ccccc1` (stereo unspecified), the TGI in the experiment on U251 CNS, with SF-268 CNS, with UACC-62 melanoma, with MALME-3M melanoma, with RXF 393 renal and in the experiment on OVCAR-3 ovarian was above 100 µM each time. Also, the TGI with MDA-N, in the experiment with SNB-75 CNS, in the experiment with CCRF-CEM leukemia, in the experiment on CAKI-1 renal, in the experiment with SW-620 colon and in the experiment with NCI-H460 lung was above 100 µM in each case. The TGI with NCI-H226 lung, in the experiment on OVCAR-8 ovarian, in the experiment on 786-0 renal, with SK-OV-3 ovarian and in the experiment with UO-31 renal was above 100 µM in each case.

Regarding `CC(=O)OCC1OC(n2c(N)c(C#N)c(-c3ccc(C)cc3)c(C#N)c2=S)C(OC(C)=O)C(OC(C)=O)C1OC(C)=O` (stereo unspecified), the TGI in the experiment on U251 CNS is 30.6 µM; in the experiment with SF-268 CNS, 28.5 µM; in the experiment on UACC-62 melanoma, above 100 µM; in the experiment on MALME-3M melanoma it was 33 µM; in the experiment with RXF 393 renal, 32.7 µM; in the experiment with OVCAR-3 ovarian it was above 100 µM. The TGI with MDA-N is 30.9 µM; in the experiment on SNB-75 CNS it was 29.5 µM; with CCRF-CEM leukemia it was 78.4 µM; in the experiment on CAKI-1 renal, above 100 µM; in the experiment with SW-620 colon, above 100 µM; in the experiment on NCI-H460 lung, above 100 µM. In addition, the TGI in the experiment on NCI-H226 lung came to 20.1 µM; with OVCAR-8 ovarian, 28.5 µM; in the experiment with 786-0 renal, 29.2 µM; in the experiment on SK-OV-3 ovarian, 66.5 µM; with UO-31 renal it was 31.8 µM.

Source of the values: PubChem BioAssay (NCI).
